Key:
human kinase Mps-1 = human kinase Mps-1 (Homo sapiens (Human), UniProt P33981); assay: Mps-1 kinase assay (TR-FRET); format: biochemical; conditions: 10 μM ATP; read-out: Mps1 avg (IC50 [mol/l])
Description: The human kinase Mps-1 phosphorylates a biotinylated substrate peptide. Detection of the phosphorylated product is achieved by time-resolved fluorescence resonance energy transfer (TR-FRET) from Europium-labelled anti-phospho-Serine/Threonine antibody as donor to streptavidin labelled with cross-linked allophycocyanin (SA-XLent) as acceptor. Compounds are tested for their inhibition of the kinase activity.
N-terminally GST-tagged human full length recombinant Mps-1 kinase (purchased from Invitrogen, Karslruhe, Germany, cat. no PV4071) was used. As substrate for the kinase reaction a biotinylated peptide of the amino-acid sequence biotin-Ahx-PWDPDDADITEILG (C-terminus in amide form, purchased from Biosyntan GmbH, Berlin) was used.
For the assay 50 nl of a 100-fold concentrated solution of the test compound in DMSO was pipetted into a black low volume 384 well microtiter plate (Greiner Bio-One, Frickenhausen, Germany), 2 μl of a solution of Mps-1 in assay buffer [0.1 mM sodium-ortho-vanadate, 10 mM MgCl2, 2 mM DTT, 25 mM Hepes pH 7.7, 0.05% BSA (w/v), 0.001% Pluronic F-127] were added and the mixture was incubated for 15 min at 22° C. to allow pre-binding of the test compounds to Mps-1 before the start of the kinase reaction. Then the kinase reaction was started by the addition of 3 μl of a solution of 16.7 μM adenosine-tri-phosphate (ATP, 16.7 μM=>final conc. in the 5 μl assay volume is 10 μM) and peptide substrate (1.67 μM=>final conc. in the 5 μl assay volume is 1 μM) in assay buffer and the resulting mixture was incubated for a reaction time of 60 min at 22° C. The concentration of Mps-1 in the assay was adjusted to the activity of the enzyme lot and was chosen appropriate to have the assay in the linear range, typical enzyme concentrations were in the range of about 0.5 nM (final conc. in the 5 μl assay volume). The reaction was stopped by the addition of 5 μl of a solution of TR-FRET detection reagents (100 mM Hepes pH 7.4, 0.1% BSA, 40 mM EDTA, 140 nM Streptavidin-XLent [#61GSTXLB, Fa. Cis Biointernational, Marcoule, France], 1.5 nM anti-phospho(Ser/Thr)-Europium-antibody [#AD0180, PerkinElmer LAS, Rodgau-Jugesheim, Germany]. Instead of the 1.5 nM anti-phospho(Ser/Thr)-Europium-antibody a mixture of 2 nM unlabeled anti-phospho ser/thr-pro antibody MPM-2 [Millipore cat. #05-368] and 1 nM LANCE EU-W1024 labeled anti-mouse IgG antibody [Perkin-Elmer, product no. AD0077] can be used).
The resulting mixture was incubated 1 h at 22° C. to allow the binding of the phosphorylated peptide to the anti-phospho(Ser/Thr)-Europium-antibody. Subsequently the amount of phosphorylated substrate was evaluated by measurement of the resonance energy transfer from the Europium-labelled anti-phospho(Ser/Thr) antibody to the Streptavidin-XLent. Therefore, the fluorescence emissions at 620 nm and 665 nm after excitation at 350 nm was measured in a Viewlux TR-FRET reader (PerkinElmer LAS, Rodgau-Jugesheim, Germany). The “blank-corrected normalized ratio” (a Viewlux specific readout, similar to the traditional ratio of the emissions at 665 nm and at 622 nm, in which blank and Eu-donor crosstalk are subtracted from the 665 nm signal before the ratio is calculated) was taken as the measure for the amount of phosphorylated substrate. The data were normalised (enzyme reaction without inhibitor=0% inhibition, all other assay components but no enzyme=100% inhibition).

CDK2/CycE = CDK2/CycE (Homo sapiens (Human), UniProt P24941); assay: CDK2/CycE kinase assay (TR-FRET); format: biochemical; conditions: 10 μM ATP; read-out: CDK2 avg (IC50 [mol/l])
Source text: CDK2/CycE-inhibitory activity of compounds of the present invention was quantified employing the CDK2/CycE TR-FRET assay as described in the following paragraphs.
Recombinant fusion proteins of GST and human CDK2 and of GST and human CycE, expressed in insect cells (Sf9) and purified by Glutathion-Sepharose affinity chromatography, were purchased from ProQinase GmbH (Freiburg, Germany). As substrate for the kinase reaction biotinylated peptide biotin-Ttds-YISPLKSPYKISEG (C-terminus in amid form) was used which can be purchased e.g. form the company JERINI peptide technologies (Berlin, Germany).
For the assay 50 nl of a 100 fold concentrated solution of the test compound in DMSO was pipetted into a black low volume 384 well microtiter plate (Greiner Bio-One, Frickenhausen, Germany), 2 μl of a solution of CDK2/CycE in aqueous assay buffer [50 mM Tris/HCl pH 8.0, 10 mM MgCl2, 1.0 mM dithiothreitol, 0.1 mM sodium ortho-vanadate, 0.01% (v/v) Nonidet-P40 (Sigma)] were added and the mixture was incubated for 15 min at 22° C. to allow pre-binding of the test compounds to the enzyme before the start of the kinase reaction. Then the kinase reaction was started by the addition of 3 μl of a solution of adenosine-tri-phosphate (ATP, 16.7 μM=>final conc. in the 5 μl assay volume is 10 μM) and substrate (1.25 μM=>final conc. in the 5 μl assay volume is 0.75 μM) in assay buffer and the resulting mixture was incubated for a reaction time of 25 min at 22° C. The concentration of CDK2/CycE was adjusted depending of the activity of the enzyme lot and was chosen appropriate to have the assay in the linear range, typical concentrations were in the range of 130 ng/ml. The reaction was stopped by the addition of 5 μl of a solution of TR-FRET detection reagents (0.2 μM streptavidine-XL665 [Cisbio Bioassays, Codolet, France] and 1 nM anti-RB(pSer807/pSer811)-antibody from BD Pharmingen [#558389] and 1.2 nM LANCE EU-W1024 labeled anti-mouse IgG antibody [Perkin-Elmer, product no. AD0077, as an alternative a Terbium-cryptate-labeled anti-mouse IgG antibody from Cisbio Bioassays can be used]) in an aqueous EDTA-solution (100 mM EDTA, 0.2% (w/v) bovine serum albumin in 100 mM HEPES/NaOH pH 7.0).
The resulting mixture was incubated 1 h at 22° C. to allow the formation of complex between the phosphorylated biotinylated peptide and the detection reagents. Subsequently the amount of phosphorylated substrate was evaluated by measurement of the resonance energy transfer from the Eu-chelate to the streptavidine-XL. Therefore, the fluorescence emissions at 620 nm and 665 nm after excitation at 350 nm was measured in a TR-FRET reader, e.g. a Rubystar (BMG Labtechnologies, Offenburg, Germany) or a Viewlux (Perkin-Elmer). The ratio of the emissions at 665 nm and at […] was taken as the measure for the amount of phosphorylated substrate. The data were normalised (enzyme reaction without inhibitor=0% inhibition, all other assay components but no enzyme=100% inhibition).

human kinase Mps-1, sequence (P33981 whole entry): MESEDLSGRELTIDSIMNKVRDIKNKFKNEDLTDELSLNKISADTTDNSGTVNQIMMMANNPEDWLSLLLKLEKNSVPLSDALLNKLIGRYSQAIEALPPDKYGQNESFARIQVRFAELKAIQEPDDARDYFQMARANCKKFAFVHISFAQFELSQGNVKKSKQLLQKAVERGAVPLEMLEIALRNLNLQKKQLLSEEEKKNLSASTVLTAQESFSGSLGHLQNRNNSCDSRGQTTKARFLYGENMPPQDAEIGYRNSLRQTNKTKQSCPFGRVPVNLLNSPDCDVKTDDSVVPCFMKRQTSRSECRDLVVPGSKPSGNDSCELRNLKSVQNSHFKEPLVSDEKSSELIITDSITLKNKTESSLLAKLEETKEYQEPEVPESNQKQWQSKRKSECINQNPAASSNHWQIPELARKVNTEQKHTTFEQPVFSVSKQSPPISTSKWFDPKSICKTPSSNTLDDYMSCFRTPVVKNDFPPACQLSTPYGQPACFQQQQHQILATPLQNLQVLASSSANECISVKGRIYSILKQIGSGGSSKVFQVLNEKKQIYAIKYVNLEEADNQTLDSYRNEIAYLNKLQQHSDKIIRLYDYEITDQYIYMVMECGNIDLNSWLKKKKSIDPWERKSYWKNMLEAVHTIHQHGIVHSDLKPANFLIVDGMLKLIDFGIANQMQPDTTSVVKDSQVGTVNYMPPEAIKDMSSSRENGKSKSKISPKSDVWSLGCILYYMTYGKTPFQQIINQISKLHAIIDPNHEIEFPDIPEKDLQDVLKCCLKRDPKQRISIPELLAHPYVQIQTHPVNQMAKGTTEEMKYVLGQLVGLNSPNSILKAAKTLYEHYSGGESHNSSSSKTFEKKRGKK

IC50 (human kinase Mps-1)	IC50 (CDK2/CycE)	SMILES
> 20 µM	> 20 µM	Cc1nsc(Nc2cc(C#N)ccn2)c1C(=O)Nc1ccc(F)c(F)c1 [Example 27, 5-[(4-Cyanopyridin-2-yl)amino]-N-(3,4-difluorophenyl)-3-methyl-1,2-thiazole-4-carboxamide]
> 20 µM	> 20 µM	Cc1nsc(Nc2cnc3ccccc3n2)c1C(=O)Nc1ccc(Oc2ccc(F)cc2F)nc1 [Example 113, N-[6-(2,4-Difluorophenoxy)pyridin-3-yl]-3-methyl-5-(quinoxalin-2-ylamino)-1,2-thiazole-4-carboxamide]
> 20 µM	> 20 µM	CCOC(=O)c1cnc(Nc2snc(C)c2C(=O)Nc2ccc(OC)nc2)s1 [Example 29, Ethyl 2-({4-[(6-methoxypyridin-3-yl)carbamoyl]-3-methyl-1,2-thiazol-5-yl}amino)-1,3-thiazole-5-carboxylate]
> 20 µM	> 20 µM	CCc1ccccc1NC(=O)c1c(C)nsc1Nc1nc(C)nc2sccc12 [Example 38, N-(2-Ethylphenyl)-3-methyl-5-[(2-methylthieno[2,3-d]pyrimidin-4-yl)amino]-1,2-thiazole-4-carboxamide]
> 20 µM	> 20 µM	COC(=O)c1ccc(Nc2snc(C)c2C(=O)Nc2ccc(OC)nc2)nc1 [Example 31, Methyl 6-({4-[(6-methoxypyridin-3-yl)carbamoyl]-3-methyl-1,2-thiazol-5-yl}amino)-nicotinate]
> 20 µM	> 20 µM	Cc1nsc(Nc2cnc3ccccc3n2)c1C(=O)Nc1ccc(OC(C)C)nc1 [Example 122, N-(6-Isopropoxypyridin-3-yl)-3-methyl-5-(quinoxalin-2-ylamino)-1,2-thiazole-4-carboxamide]
> 20 µM	> 20 µM	CCc1ccccc1NC(=O)c1c(C)nsc1Nc1cc(NC)ncn1 [Example 15, N-(2-Ethylphenyl)-3-methyl-5-{[6-(methylamino)pyrimidin-4-yl]amino}-1,2-thiazole-4-carboxamide]
> 20 µM	> 20 µM	CCc1ccccc1NC(=O)c1c(C)nsc1Nc1nccc(OC)n1 [Example 16, N-(2-Ethylphenyl)-5-[(4-methoxypyrimidin-2-yl)amino]-3-methyl-1,2-thiazole-4-carboxamide]
> 20 µM	> 20 µM	CCOC(=O)c1cnn2ccc(Nc3snc(C)c3C(=O)Nc3ccc(F)c(F)c3)nc12 [Example 55, Ethyl 5-({4-[(3,4-difluorophenyl)carbamoyl]-3-methyl-1,2-thiazol-5-yl}amino)-pyrazolo[1,5-a]pyrimidine-3-carboxylate]
> 20 µM	> 20 µM	CNC(=O)c1ccnc(Nc2snc(C)c2C(=O)Nc2ccc(F)c(F)c2)c1 [Example 108, 2-({4-[(3,4-Difluorophenyl)-carbamoyl]-3-methyl-1,2-thiazol-5-yl}amino)-N-methyliso-nicotinamide]
> 20 µM	> 20 µM	Cc1nsc(Nc2ccc(C#N)cn2)c1C(=O)Nc1ccc(F)c(F)c1 [Example 28, 5-[(5-Cyanopyridin-2-yl)amino]-N-(3,4-difluorophenyl)-3-methyl-1,2-thiazole-4-carboxamide]

More lines, now with the values behind:

SMILES	IC50 (human kinase Mps-1)	IC50 (CDK2/CycE)
CCOC(=O)c1coc(Nc2snc(C)c2C(=O)Nc2ccc(F)c(F)c2)n1 [Example 98, Ethyl 2-({4-[(3,4-difluoro-phenyl)carbamoyl]-3-methyl-1,2-thiazol-5-yl}amino)-1,3-oxazole-4-carboxylate]	18 µM	> 20 µM
Cc1nsc(Nc2nc3c(C(F)(F)F)cccc3s2)c1C(=O)Nc1ccc(Cl)c(Cl)c1 [Example 102, N-(3,4-Dichlorophenyl)-3-methyl-5-{[4-(trifluoromethyl)-1,3-benzothiazol-2-yl]amino}-1,2-thiazole-4-carboxamide]	> 20 µM	> 20 µM
Cc1nsc(Nc2nc3c(C(F)(F)F)cccc3s2)c1C(=O)Nc1ccc(Cl)c(F)c1 [Example 53, N-(4-Chloro-3-fluorophenyl)-3-methyl-5-{[4-(trifluoromethyl)-1,3-benzothiazol-2-yl]amino}-1,2-thiazole-4-carboxamide]	> 20 µM	> 20 µM
Cc1nsc(Nc2cnc3cc(F)ccc3n2)c1C(=O)Nc1ccc(F)c(F)c1 [Example 46, N-(3,4-Difluorophenyl)-5-[(6-fluoroquinoxalin-2-yl)amino]-3-methyl-1,2-thiazole-4-carboxamide]	> 20 µM	> 20 µM
CCc1ccccc1NC(=O)c1c(C)nsc1Nc1cnc2ccc(Cl)cc2n1 [Example 41, 5-[(7-Chloroquinoxalin-2-yl)amino]-N-(2-ethylphenyl)-3-methyl-1,2-thiazole-4-carboxamide]	> 20 µM	> 20 µM
CCOC(=O)c1sc(Nc2snc(C)c2C(=O)Nc2ccc(OC)nc2)nc1C [Example 30, Ethyl 2-({4-[(6-methoxypyridin-3-yl)carbamoyl]-3-methyl-1,2-thiazol-5-yl}amino)-4-methyl-1,3-thiazole-5-carboxylate]	> 20 µM	> 20 µM
CCc1ccccc1NC(=O)c1c(C)nsc1Nc1ccnc(C#N)n1 [Example 6, 5-[(2-Cyanopyrimidin-4-yl)amino]-N-(2-ethylphenyl)-3-methyl-1,2-thiazole-4-carboxamide]	> 20 µM	> 20 µM
CCc1ccccc1NC(=O)c1c(C)nsc1Nc1cnc2cc(F)ccc2n1 [Example 20, N-(2-Ethylphenyl)-5-[(6-fluoroquinoxalin-2-yl)amino]-3-methyl-1,2-thiazole-4-carboxamide]	> 20 µM	> 20 µM

Source: patent publication US9682995B2, “Amino-substituted isothiazoles” (BAYER PHARMA AKTIENGESELLSCHAFT, priority 2013, dated 2017)
